Test results: patent US9890149B2 (NuBridge BioSciences, priority 2015, dated 2018)

Target: T1, ΔF508 mutant CFTR (Homo sapiens, UniProt P13569, DEL508-508)
T1 construct: expressed in transfected cells; host or cells: Fischer rat thyroid (FRT) cells
Experiment: Fluorescence Assay (halide-sensitive YFP, iodide influx) for ΔF508 mutant CFTR activity
Assay type: cell-based
Conditions: FRT cells expressing ΔF508-CFTR and YFP-H148Q/I152L, incubated 27° C. 20-24 h; forskolin (20 μM) and test compounds (20 μM) for 20 min; rate of fluorescence quenching by I−, normalized to forskolin alone
Source text: The ΔF508 mutant CFTR activities of the CFTR modulators are detected using the Fluorescence Assay developed by Pedemonte (Pedemonte N., et al., Antihypertensive 1,4-dihydropyridines as correctors of the cystic fibrosis transmembrane conductance regulator channel gating defect caused by cystic fibrosis mutations, Mol. Pharmacol., 2005, 68, 1736-1746).
Fischer rat thyroid (FRT) cells, stably transfected with ΔF508 were retransfected with the YFP-H148Q/I152L fluorescent protein. The cells were plated (100,000 cells/well) on black 96-well microplates with clear plastic bottom (Corning Life Sciences, Acton, Mass.).
The 96-well microplates containing FRT cells expressing F508-CFTR and the halide-sensitive YFP were incubated at 27° C. for 20 to 24 h to allow rescue of the mutant protein to the plasma membrane. After incubation, cells were washed with PBS (containing 137 mM NaCl, 2.7 mM KCl, 8.1 mM Na2HPO4, 1.5 mM KH2PO4, 1 mM CaCl2, and 0.5 mM MgCl2) and stimulated for 20 min with forskolin (20 μM) and test compounds (20 μM) in a final volume of […] Microplates were then transferred to a microplate reader for CFTR activity determination.

T1 sequence (P13569 with tags, fused parts or gaps DEL508-508): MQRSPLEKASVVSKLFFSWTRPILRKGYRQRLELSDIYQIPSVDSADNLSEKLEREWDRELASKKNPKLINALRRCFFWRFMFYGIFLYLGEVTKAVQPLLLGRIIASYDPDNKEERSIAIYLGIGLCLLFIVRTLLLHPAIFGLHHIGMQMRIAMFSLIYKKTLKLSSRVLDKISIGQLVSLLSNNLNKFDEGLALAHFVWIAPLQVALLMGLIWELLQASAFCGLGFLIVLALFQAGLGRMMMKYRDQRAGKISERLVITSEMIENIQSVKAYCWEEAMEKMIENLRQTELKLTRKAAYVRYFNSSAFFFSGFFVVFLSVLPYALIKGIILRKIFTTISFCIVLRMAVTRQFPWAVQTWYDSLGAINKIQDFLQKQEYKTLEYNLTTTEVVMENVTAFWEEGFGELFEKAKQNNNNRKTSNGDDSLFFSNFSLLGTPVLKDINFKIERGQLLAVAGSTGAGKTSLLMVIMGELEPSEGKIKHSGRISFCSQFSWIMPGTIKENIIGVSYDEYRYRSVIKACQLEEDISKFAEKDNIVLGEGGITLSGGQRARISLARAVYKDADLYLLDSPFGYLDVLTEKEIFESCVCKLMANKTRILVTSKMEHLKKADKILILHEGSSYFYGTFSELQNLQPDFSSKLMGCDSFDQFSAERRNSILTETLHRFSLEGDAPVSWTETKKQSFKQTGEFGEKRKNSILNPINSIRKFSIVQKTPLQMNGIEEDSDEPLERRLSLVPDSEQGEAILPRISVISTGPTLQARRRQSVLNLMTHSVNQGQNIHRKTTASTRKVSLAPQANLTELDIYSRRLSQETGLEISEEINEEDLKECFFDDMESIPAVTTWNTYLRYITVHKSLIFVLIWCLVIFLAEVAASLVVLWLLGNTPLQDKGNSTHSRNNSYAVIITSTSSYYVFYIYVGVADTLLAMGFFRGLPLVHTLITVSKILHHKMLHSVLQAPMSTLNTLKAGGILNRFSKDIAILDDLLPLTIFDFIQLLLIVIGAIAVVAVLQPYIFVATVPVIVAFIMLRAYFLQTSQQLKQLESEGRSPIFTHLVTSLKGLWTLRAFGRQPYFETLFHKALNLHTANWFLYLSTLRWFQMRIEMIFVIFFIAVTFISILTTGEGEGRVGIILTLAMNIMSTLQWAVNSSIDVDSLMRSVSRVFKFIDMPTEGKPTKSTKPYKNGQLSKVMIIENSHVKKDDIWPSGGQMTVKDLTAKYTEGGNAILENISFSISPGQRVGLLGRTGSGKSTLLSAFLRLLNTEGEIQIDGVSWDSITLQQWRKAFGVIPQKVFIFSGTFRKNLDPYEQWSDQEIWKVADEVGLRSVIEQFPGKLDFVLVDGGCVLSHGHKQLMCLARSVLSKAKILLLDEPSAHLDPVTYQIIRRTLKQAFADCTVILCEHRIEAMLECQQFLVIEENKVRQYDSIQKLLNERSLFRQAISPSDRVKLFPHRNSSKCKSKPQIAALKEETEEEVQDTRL

In the case of `Cl.N[C@H]1CC[C@H](Oc2sncc2NC(=O)c2ccc(C(F)(F)F)c(-c3c(F)cccc3F)n2)CC1` [Example 46, N-(5-(((1r,4r)-4-aminocyclohexyl)oxy)isothiazol-4-yl)-6-(2,6-difluorophenyl)-5-(trifluoromethyl)picolinamide hydrochloride], the “CFTR Activity” value was 1.

In the case of `O=C(Nc1cnsc1OCC1CCOCC1)c1ccc(C(F)(F)F)c(-c2c(F)cccc2F)n1` [Example 47], the “CFTR Activity” value was 0.6.

`Cl.Nc1cc(C(F)(F)F)c(-c2c(F)cccc2F)nc1C(=O)Nc1cnsc1OC1CCCNCC1` (stereo not shown) [Example 48, 3-amino-N-(5-(azepan-4-yloxy)isothiazol-4-yl)-6-(2,6-difluorophenyl)-5-(trifluoromethyl)picolinamide hydrochloride] was tested, and the “CFTR Activity” value was 0.7.

`Cl.Nc1cc(C(F)(F)F)c(-c2c(F)cccc2F)nc1C(=O)Nc1cnsc1OCC1CCNCC1` [Example 49, 3-amino-6-(2,6-difluorophenyl)-N-(5-(piperidin-4-ylmethoxy)isothiazol-4-yl)-5-(trifluoromethyl)picolinamide hydrochloride] was tested, and the “CFTR Activity” value was 0.2.

In the case of `Cl.Nc1cc(C(F)(F)F)c(-c2c(F)cccc2F)nc1C(=O)Nc1cnsc1OCC1CNC1` [Example 50, 3-amino-N-(5-(azetidin-3-ylmethoxy)isothiazol-4-yl)-6-(2,6-difluorophenyl)-5-(trifluoromethyl)picolinamide hydrochloride], the “CFTR Activity” value was 0.1.

With `Cl.Nc1cc(C(F)(F)F)c(-c2c(F)cccc2F)nc1C(=O)Nc1cnsc1OC1CCNCC1` [Example 51, 3-amino-6-(2,6-difluorophenyl)-N-(5-(piperidin-4-yloxy)isothiazol-4-yl)-5-(trifluoromethyl)picolinamide hydrochloride] the “CFTR Activity” value was 0.7.

In the case of `Cl.Nc1cc(C(F)(F)F)c(-c2c(F)cccc2F)nc1C(=O)Nc1cnsc1O[C@H]1CC[C@H](N)CC1` [Example 52, 3-amino-N-(5-(((1r,4r)-4-aminocyclohexyl)oxy)isothiazol-4-yl)-6-(2,6-difluorophenyl)-5-(trifluoromethyl)picolinamide hydrochloride], the “CFTR Activity” value was 4.6.

For `Cl.Nc1cc(C(F)(F)F)c(-c2ccccc2)nc1C(=O)Nc1cnsc1OC1CCNC1` (stereo not shown) [Example 53, 3-amino-6-phenyl-N-(5-(pyrrolidin-3-yloxy)isothiazol-4-yl)-5-(trifluoromethyl)picolinamide hydrochloride], the “CFTR Activity” value was 0.4.

`Cl.NCC(CCl)COc1sncc1NC(=O)c1ccc(C(F)(F)F)c(-c2c(F)cccc2F)n1` (stereo not shown) [Example 54, N-(5-(3-amino-2-(chloromethyl)propoxy)isothiazol-4-yl)-6-(2,6-difluorophenyl)-5-(trifluoromethyl)picolinamide hydrochloride] was tested, and the “CFTR Activity” value was 0.5.

In the case of `Cl.NCC(CCl)COc1sncc1NC(=O)c1nc(-c2c(F)cccc2F)c(C(F)(F)F)cc1N` (stereo not shown) [Example 55, 3-amino-N-(5-(3-amino-2-(chloromethyl)propoxy)isothiazol-4-yl)-6-(2,6-difluorophenyl)-5-(trifluoromethyl)picolinamide hydrochloride], the “CFTR Activity” value was 0.5.

With `Cl.NCC(CO)COc1sncc1NC(=O)c1ccc(F)c(-c2c(F)cccc2F)n1` (stereo not shown) [Example 56, N-(5-(3-amino-2-(hydroxymethyl)propoxy)isothiazol-4-yl)-6-(2,6-difluorophenyl)-5-fluoropicolinamide hydrochloride] the “CFTR Activity” value was 0.5.

In the case of `Cl.NCC(CO)COc1sncc1NC(=O)c1nc(-c2c(F)cccc2F)c(F)cc1N` (stereo not shown) [Example 57, 3-amino-N-(5-(3-amino-2-(hydroxymethyl)propoxy)isothiazol-4-yl)-6-(2,6-difluorophenyl)-5-fluoropicolinamide hydrochloride], the “CFTR Activity” value was 1.8.

For `Cl.NCC(CO)COc1sncc1NC(=O)c1ccc(C(F)(F)F)c(-c2c(F)cccc2F)n1` (stereo not shown) [Example 58, N-(5-(3-amino-2-(hydroxymethyl)propoxy)isothiazol-4-yl)-6-(2,6-difluorophenyl)-5-(trifluoromethyl)picolinamide hydrochloride], the “CFTR Activity” value was 2.
